# ChEMBL document CHEMBL5291721, “A preclinical secondary pharmacology resource illuminates target-adverse drug reaction associations of marketed drugs” (Nat Commun, 2023)
# Tests used:
# [1] = target: T1, Alpha-1A adrenergic receptor (Homo sapiens, UniProt P35348); type: functional, cell-based
# T1 sequence (P35348 whole entry): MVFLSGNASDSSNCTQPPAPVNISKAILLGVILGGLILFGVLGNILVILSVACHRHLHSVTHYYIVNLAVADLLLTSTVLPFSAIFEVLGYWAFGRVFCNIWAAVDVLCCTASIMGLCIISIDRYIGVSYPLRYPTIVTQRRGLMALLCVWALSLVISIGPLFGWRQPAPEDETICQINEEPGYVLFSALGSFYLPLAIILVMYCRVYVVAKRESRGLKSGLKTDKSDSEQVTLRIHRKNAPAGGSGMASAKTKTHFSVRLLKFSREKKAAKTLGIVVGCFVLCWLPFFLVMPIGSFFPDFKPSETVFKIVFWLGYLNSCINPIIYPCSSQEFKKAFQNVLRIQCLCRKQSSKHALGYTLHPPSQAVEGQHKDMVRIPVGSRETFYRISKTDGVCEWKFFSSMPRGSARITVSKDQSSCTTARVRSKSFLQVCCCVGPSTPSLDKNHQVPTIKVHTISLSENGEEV
# [2] = target: T2, Alpha-2A adrenergic receptor (Homo sapiens, UniProt P08913)
# T2 sequence (P08913 whole entry): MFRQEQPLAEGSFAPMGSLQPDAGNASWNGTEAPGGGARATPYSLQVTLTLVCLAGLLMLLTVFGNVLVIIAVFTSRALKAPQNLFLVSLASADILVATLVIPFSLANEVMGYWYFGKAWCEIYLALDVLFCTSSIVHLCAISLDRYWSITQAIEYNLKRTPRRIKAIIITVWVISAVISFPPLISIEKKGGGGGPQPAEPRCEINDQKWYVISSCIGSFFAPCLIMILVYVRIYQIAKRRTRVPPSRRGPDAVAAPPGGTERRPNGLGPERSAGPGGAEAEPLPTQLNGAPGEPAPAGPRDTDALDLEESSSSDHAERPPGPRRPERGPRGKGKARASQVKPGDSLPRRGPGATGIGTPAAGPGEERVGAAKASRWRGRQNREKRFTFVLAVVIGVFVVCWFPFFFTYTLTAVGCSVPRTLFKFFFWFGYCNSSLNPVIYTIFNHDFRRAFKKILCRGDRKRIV
# [3] = target: D(1A) dopamine receptor (Homo sapiens, UniProt P21728)
# D(1A) dopamine receptor, sequence (P21728 whole entry): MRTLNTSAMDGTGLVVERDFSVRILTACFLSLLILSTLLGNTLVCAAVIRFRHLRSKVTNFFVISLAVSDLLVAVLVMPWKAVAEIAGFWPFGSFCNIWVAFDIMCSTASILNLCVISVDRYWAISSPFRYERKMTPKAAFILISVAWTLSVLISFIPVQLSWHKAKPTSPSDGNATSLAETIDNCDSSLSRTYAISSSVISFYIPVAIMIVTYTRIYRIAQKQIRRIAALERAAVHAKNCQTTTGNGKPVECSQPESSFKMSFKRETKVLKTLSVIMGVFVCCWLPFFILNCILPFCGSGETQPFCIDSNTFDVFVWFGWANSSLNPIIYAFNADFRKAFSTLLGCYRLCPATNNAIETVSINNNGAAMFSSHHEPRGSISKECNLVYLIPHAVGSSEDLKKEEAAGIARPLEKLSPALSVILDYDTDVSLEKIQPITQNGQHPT
# [4] = target: D(3) dopamine receptor (Homo sapiens, UniProt P35462)
# D(3) dopamine receptor, sequence (P35462 whole entry): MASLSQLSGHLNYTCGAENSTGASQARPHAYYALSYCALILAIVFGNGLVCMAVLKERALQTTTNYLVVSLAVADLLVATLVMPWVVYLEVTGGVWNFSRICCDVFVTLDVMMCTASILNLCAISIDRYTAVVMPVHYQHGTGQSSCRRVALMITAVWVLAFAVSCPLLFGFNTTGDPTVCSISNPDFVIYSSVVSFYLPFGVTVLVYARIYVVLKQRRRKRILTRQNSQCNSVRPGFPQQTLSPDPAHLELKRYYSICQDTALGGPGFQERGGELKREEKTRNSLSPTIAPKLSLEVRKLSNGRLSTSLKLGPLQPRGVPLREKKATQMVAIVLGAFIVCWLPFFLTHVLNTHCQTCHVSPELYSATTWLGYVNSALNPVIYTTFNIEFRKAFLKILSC
# [5] = target: Prothrombin (Homo sapiens, UniProt P00734); type: functional
# [6] = target: Histamine H3 receptor (Homo sapiens, UniProt Q9Y5N1)
# Histamine H3 receptor, sequence (Q9Y5N1 whole entry): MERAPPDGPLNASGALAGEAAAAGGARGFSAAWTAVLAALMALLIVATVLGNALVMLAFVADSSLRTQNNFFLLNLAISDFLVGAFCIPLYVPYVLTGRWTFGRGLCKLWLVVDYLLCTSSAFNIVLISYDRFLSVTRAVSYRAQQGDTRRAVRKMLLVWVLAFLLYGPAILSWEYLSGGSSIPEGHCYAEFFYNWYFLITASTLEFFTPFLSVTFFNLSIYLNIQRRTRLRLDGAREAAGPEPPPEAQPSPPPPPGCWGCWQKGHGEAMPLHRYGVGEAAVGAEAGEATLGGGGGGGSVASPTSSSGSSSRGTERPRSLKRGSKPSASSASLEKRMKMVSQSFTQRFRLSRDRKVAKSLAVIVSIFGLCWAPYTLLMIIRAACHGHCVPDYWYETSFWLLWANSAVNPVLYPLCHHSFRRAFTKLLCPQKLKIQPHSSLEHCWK
# [7] = target: 5-hydroxytryptamine receptor 2B (Homo sapiens, UniProt P41595); type: functional, cell-based
# [8] = target: Voltage-gated inwardly rectifying potassium channel KCNH2 (Homo sapiens, UniProt Q12809); type: functional
# Voltage-gated inwardly rectifying potassium channel KCNH2, sequence (Q12809 whole entry): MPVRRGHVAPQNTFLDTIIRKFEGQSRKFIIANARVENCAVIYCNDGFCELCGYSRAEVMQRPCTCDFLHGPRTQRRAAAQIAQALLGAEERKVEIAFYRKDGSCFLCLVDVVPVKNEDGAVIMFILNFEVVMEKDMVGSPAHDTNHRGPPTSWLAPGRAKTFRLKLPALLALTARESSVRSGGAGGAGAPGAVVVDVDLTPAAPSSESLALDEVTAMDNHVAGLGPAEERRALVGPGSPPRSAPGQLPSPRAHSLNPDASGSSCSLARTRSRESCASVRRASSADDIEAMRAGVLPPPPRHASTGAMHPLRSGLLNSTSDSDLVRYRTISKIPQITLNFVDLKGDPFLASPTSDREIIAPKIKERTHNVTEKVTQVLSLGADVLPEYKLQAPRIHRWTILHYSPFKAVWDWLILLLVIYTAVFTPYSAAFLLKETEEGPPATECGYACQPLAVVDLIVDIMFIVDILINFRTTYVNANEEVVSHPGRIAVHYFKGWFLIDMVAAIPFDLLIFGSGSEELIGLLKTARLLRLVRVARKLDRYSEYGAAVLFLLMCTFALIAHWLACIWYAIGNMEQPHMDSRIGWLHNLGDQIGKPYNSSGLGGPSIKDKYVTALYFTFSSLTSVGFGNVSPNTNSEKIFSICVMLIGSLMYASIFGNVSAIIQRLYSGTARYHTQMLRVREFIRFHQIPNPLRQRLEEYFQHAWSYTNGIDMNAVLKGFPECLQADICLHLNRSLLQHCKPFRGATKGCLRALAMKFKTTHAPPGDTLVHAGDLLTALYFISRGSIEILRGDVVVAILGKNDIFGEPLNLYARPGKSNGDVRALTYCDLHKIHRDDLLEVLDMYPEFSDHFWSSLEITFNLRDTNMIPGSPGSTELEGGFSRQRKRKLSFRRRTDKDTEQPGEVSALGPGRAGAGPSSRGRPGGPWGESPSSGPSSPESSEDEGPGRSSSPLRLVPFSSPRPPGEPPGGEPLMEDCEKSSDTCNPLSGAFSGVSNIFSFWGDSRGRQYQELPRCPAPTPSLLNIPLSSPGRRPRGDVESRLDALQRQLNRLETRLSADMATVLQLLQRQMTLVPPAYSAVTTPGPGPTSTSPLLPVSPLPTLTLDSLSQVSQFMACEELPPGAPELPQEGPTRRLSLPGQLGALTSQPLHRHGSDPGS
# [9] = target: Mu-type opioid receptor (Homo sapiens, UniProt P35372)
# Mu-type opioid receptor, sequence (P35372 whole entry): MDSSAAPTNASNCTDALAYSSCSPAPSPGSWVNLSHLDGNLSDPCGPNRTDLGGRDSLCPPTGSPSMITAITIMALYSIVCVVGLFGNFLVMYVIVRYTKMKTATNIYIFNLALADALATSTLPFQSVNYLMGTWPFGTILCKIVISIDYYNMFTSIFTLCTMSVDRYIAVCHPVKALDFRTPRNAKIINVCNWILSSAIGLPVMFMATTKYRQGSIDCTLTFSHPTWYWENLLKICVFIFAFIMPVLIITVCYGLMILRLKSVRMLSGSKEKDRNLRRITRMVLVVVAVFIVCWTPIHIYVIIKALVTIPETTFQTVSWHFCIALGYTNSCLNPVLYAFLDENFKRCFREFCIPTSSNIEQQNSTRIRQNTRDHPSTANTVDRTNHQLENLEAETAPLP
# [10] = target: cGMP-inhibited 3',5'-cyclic phosphodiesterase 3A (Homo sapiens, UniProt Q14432); type: functional
# cGMP-inhibited 3',5'-cyclic phosphodiesterase 3A, sequence (Q14432 whole entry): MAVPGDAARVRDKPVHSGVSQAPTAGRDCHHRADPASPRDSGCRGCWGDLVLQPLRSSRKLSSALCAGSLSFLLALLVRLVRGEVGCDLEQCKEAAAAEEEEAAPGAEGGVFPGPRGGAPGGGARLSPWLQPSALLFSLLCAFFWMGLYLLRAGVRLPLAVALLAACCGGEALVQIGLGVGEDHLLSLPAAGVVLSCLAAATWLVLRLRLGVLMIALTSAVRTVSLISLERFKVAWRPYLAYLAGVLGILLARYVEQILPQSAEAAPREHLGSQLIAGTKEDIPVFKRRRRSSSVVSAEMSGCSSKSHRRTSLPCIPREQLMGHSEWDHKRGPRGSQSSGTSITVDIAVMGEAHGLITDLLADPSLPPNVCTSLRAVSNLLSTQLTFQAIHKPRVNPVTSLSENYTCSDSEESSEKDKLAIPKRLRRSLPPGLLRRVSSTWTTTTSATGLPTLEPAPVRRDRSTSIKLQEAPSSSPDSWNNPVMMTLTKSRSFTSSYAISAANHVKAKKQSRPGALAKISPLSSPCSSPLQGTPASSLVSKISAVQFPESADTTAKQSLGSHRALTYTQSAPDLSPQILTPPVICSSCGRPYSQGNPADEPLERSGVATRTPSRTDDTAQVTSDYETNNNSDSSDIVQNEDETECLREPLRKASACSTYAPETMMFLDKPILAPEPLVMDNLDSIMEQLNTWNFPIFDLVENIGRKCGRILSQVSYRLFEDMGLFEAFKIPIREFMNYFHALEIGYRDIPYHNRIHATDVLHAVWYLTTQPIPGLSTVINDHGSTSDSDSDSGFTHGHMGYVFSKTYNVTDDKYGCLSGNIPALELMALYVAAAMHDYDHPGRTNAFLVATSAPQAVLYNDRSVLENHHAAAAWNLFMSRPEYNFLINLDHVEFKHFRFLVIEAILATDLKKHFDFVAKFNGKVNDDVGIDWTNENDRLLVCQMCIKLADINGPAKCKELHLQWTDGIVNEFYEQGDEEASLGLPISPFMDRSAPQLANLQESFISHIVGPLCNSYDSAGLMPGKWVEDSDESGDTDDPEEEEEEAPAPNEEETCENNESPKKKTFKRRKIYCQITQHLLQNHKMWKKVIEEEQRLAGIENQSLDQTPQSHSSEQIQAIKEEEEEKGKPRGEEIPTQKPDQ
# [11] = target: T3, Progesterone receptor (Homo sapiens, UniProt P06401)
# T3 sequence (P06401 whole entry): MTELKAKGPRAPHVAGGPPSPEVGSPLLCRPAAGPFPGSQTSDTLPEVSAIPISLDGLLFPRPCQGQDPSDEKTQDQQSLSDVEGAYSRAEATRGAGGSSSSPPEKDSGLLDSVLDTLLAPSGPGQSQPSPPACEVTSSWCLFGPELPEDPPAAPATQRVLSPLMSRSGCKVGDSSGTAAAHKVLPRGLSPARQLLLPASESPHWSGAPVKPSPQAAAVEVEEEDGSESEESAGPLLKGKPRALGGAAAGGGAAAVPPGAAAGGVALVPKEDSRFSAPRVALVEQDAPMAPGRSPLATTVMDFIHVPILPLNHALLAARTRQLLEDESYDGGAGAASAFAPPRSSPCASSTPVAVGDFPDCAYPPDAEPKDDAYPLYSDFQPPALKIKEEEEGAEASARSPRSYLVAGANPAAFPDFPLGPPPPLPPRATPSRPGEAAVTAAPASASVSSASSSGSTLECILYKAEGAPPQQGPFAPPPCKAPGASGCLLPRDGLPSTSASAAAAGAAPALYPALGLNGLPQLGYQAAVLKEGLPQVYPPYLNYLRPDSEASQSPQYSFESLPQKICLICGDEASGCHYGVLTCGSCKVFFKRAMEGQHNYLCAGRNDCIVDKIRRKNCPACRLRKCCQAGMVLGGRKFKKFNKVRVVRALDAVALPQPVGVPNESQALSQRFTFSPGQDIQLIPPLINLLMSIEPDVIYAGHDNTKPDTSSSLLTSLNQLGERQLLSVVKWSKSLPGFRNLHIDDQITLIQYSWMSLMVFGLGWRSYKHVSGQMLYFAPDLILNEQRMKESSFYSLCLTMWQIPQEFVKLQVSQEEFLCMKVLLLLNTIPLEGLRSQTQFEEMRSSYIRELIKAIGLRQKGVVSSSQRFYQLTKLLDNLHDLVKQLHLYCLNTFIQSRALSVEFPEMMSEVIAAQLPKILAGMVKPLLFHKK
# [12] = target: Prostaglandin G/H synthase 1 (Homo sapiens, UniProt P23219); type: functional
# [13] = target: Sodium-dependent noradrenaline transporter (Homo sapiens, UniProt P23975)
# [14] = target: Sodium-dependent dopamine transporter (Homo sapiens, UniProt Q01959)
# Sodium-dependent dopamine transporter, sequence (Q01959 whole entry): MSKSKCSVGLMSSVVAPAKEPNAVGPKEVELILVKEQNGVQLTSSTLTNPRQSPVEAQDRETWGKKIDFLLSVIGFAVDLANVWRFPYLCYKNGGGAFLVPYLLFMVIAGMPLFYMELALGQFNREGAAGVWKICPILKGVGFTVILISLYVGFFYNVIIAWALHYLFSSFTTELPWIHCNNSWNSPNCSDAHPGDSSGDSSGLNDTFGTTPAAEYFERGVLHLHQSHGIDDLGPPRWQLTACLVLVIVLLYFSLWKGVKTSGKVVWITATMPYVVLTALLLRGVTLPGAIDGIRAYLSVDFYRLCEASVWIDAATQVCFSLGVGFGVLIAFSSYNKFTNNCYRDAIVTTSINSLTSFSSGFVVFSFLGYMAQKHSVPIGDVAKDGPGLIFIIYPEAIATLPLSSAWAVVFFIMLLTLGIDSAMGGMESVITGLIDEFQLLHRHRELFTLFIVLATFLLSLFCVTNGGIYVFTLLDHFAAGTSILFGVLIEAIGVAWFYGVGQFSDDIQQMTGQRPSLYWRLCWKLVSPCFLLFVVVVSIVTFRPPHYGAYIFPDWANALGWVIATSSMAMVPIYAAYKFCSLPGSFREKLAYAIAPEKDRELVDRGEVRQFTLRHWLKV
# [15] = target: T4, Thromboxane A2 receptor (Homo sapiens, UniProt P21731); type: functional, cell-based
# T4 sequence (P21731 whole entry): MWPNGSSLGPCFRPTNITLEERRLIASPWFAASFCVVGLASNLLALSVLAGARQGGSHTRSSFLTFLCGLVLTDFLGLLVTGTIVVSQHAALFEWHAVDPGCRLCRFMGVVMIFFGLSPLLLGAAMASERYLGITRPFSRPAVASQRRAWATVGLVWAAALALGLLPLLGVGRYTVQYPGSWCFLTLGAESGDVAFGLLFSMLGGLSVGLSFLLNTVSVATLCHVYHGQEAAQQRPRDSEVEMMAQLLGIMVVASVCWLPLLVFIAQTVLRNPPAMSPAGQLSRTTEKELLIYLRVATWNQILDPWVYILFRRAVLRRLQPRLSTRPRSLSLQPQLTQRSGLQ
# Also: assay procedure not described here.
Structure (SMILES),AC50 [1] [µM],AC50 [2] [µM],AC50 [3] [µM],AC50 [4] [µM],AC50 [5] [µM],AC50 [6] [µM],AC50 [7] [µM],AC50 [8] [µM],AC50 [9] [µM],AC50 [10] [µM],AC50 [11] [µM],AC50 [12] [µM],AC50 [13] [µM],AC50 [14] [µM],AC50 [15] [µM]
CCCc1nc2c(C)cc(-c3nc4ccccc4n3C)cc2n1Cc1ccc(-c2ccccc2C(=O)O)cc1,9.55,> 30,> 30,> 30,> 30,> 30,> 30,> 30,2.56,29.9,> 30,> 30,> 30,> 30,14.5
CC[C@@H]1C[C@]1(NC(=O)[C@@H]1C[C@@H]2CN1C(=O)[C@H](C(C)(C)C)NC(=O)OCC(C)(C)CCCCc1cccc3c1CN(C3)C(=O)O2)C(=O)NS(=O)(=O)C1CC1,29.7,> 30,> 30,> 30,> 30,> 30,> 30,> 30,> 30,> 30,> 30,> 30,> 30,> 30,29.5
CC(=O)NCCCCCC(=O)O [ACEXAMIC ACID],18.9,> 30,> 30,> 30,> 30,> 30,> 30,> 30,> 30,> 30,> 30,> 30,> 30,> 30,> 30
C=C(C)CNc1ccc(C(C)C(=O)O)cc1 (centres undefined) [ALMINOPROFEN],> 30,> 30,> 30,> 30,> 30,> 30,> 30,> 30,> 30,> 30,> 30,> 30,> 30,> 30,> 30
Cc1cc(C2CCCCC2)n(O)c(=O)c1 [CICLOPIROX],23.1,> 30,> 30,> 30,> 30,> 30,> 30,> 30,> 30,> 30,> 30,> 30,> 30,> 30,25.4
C[N+](C)(C)CCOP(=O)(O)OP(=O)([O-])OC[C@H]1O[C@@H](n2ccc(N)nc2=O)[C@H](O)[C@@H]1O [CITICOLINE],> 30,> 30,> 30,> 30,> 30,> 30,> 30,> 30,> 30,> 30,> 30,> 30,> 30,> 30,> 30
C[C@H]1O[C@@H](O[C@H]2CC[C@@]3(C)[C@H](CC[C@@H]4[C@@H]3C[C@@H](O)[C@]3(C)[C@@H](C5=CC(=O)OC5)CC[C@]43O)C2)C[C@H](O)[C@@H]1O[C@H]1C[C@H](O)[C@H](O[C@H]2C[C@H](O)[C@H](O[C@@H]3O[C@H](CO)[C@@H](O)[C@H](O)[C@H]3O)[C@@H](C)O2)[C@@H](C)O1 [DESLANOSIDE],> 30,> 30,> 30,> 30,> 30,> 30,> 30,> 30,> 30,> 30,> 30,> 30,> 30,> 30,> 30
CC[C@H]1OC(=O)[C@H](C)[C@@H](O[C@H]2C[C@@](C)(OC)[C@@H](O)[C@H](C)O2)[C@H](C)[C@@H](O[C@@H]2O[C@H](C)C[C@H](N(C)C)[C@H]2O)[C@](C)(O)C[C@@H](C)[C@@H]2N[C@@H](COCCOC)O[C@H]([C@H]2C)[C@]1(C)O [DIRITHROMYCIN],> 30,> 30,> 30,> 30,> 30,> 30,> 30,> 30,> 30,> 30,> 30,> 30,> 30,> 30,> 30
O=C(O)Cc1ccccc1Oc1ccc(Cl)cc1Cl [FENCLOFENAC],> 30,> 30,> 30,> 30,> 30,> 30,> 30,> 30,> 30,> 30,> 30,> 30,> 30,> 30,> 30
CC(C(=O)O)c1cccc(Oc2ccccc2)c1 (centres undefined) [FENOPROFEN],> 30,> 30,> 30,> 30,> 30,> 30,> 30,> 30,> 30,> 30,> 30,13.5,> 30,> 30,> 30
C[N+](C)(C)CCOC(=O)CCC(=O)OCC[N+](C)(C)C [SUXAMETHONIUM],0.667,16.6,> 30,> 30,> 30,> 30,> 30,,> 30,> 30,> 30,> 30,> 30,> 30,> 30
